Test results as given in patent US20100324086A1, “COMPOUNDS AND METHODS” (Novasaid AB, priority 2008, published 2010).

Biological target: T1, recombinant, membrane-bound mPGES-1 (Homo sapiens, UniProt O14684)
T1 sequence (O14684 1-152): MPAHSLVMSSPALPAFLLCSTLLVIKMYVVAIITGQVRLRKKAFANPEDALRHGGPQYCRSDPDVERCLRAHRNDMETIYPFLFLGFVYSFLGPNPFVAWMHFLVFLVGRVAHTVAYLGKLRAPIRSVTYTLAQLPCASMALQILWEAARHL
Assay: Thiobarbituric acid assay (TBA-MDA assay), inhibition of mPGES-1
Assay type: biochemical
Conditions: remaining PGH2 measured at 535 nm
Description: Malondialdehyde is a product of lipid peroxidation and reacts with thiobarbituric acid forming a red product that absorbs at 535 nm (W. G. Niehaus, Jr and B. Samuelsson, Eur. J. Biochem 6, 126 (1968). The extinction coefficient of the TBA-MDA conjugate is 1.56×10^5 M^−1 cm^−1 (E. D. Wills. Biochem. J. 113, 315 (1969).
The method used for detection of inhibition of mPGES-1 is based on the detection of the amount of remaining PGH2. This method was described more than 20 years ago by Basevich et al (Bioorg. Khim. 1983, 9(5), 658-665.
The assay used was a modified variant and used citric acid instead of the TCA-TBA-HCl reagent described in the original assay. In this assay recombinant, membrane-bound mPGES-1 was incubated with PGH2. The reaction was stopped by adding citric acid with a final pH of 3 and a large excess of FeCl2 (20 mM) to convert any remaining PGH2 into MDA and […]. TBA reagent was finally added (0.67%) and the samples were heated at 80° C. for 30 min. The absorbance of the conjugate was measured at 535 nm.
The product of mPGES-1 (PGE2) was not measured directly in this assay, but rather the remaining substrate (PGH2) indirectly by adding FeCl2 that converts PGH2 into […] and 12-HHT. As a positive control a known mPGES-1 inhibitor, MK-886, was used and the new inhibitors were compared with the inhibition of MK-886 (% of MK-886 inhibition).

Row | SMILES | IC50 [nM]
1 | O=C(NCc1ccccc1)c1cccc(NC(=O)c2ccccc2Cl)c1 [Compound 2, 3-(2-Chloro-benzoylamino)-N-benzyl-benzamide] | 5800
2 | CCCCNC(=O)c1cccc(NC(=O)c2ccccc2Cl)c1 [Compound 4, 3-(2-Chloro-benzoylamino)-N-butyl-benzamide] | 3900
3 | O=C(Nc1ccccn1)c1cccc(NC(=O)c2ccccc2Cl)c1 [Compound 12, 3-(2-Chloro-benzoylamino)-N-(pyridine-2-yl)-benzamide] | 1300
4 | O=C(Nc1nc2ccccc2[nH]1)c1cccc(NC(=O)c2ccccc2Cl)c1 [Compound 13, 3-(2-Chloro-benzoylamino)-N-(1H-benzimidazol-2-yl)-benzamide] | 1300
5 | O=C(Nc1cccc(C(=O)Nc2ccc3ccccc3n2)c1)c1ccccc1 [Compound 17, 3-Benzoylamino-N-quinolin-2-yl-benzamide] | 3500
6 | O=C(Nc1cccc(C(=O)Nc2ccc3ccccc3n2)c1)c1cccc(Cl)c1 [Compound 29, 3-(3-Chloro-benzoylamino)-N-quinolin-2-yl-benzamide] | 4200
7 | COc1ccccc1C(=O)Nc1cccc(C(=O)Nc2ccc3ccccc3n2)c1 [Compound 41, 3-(2-Methoxy-benzoylamino)-N-quinolin-2-yl-benzamide] | 3700
8 | COc1cccc(OC)c1C(=O)Nc1cccc(C(=O)Nc2ccc3ccccc3n2)c1 [Compound 42, 3-(2,6-Dimethoxy-benzoylamino)-N-quinolin-2-yl-benzamide] | 3100
9 | CC(=O)Oc1ccccc1C(=O)Nc1cccc(C(=O)Nc2ccc3ccccc3n2)c1 [Compound 50, Acetic acid 2-[3-(quinolin-2-ylcarbamoyl)-phenylcarbamoyl]-phenyl ester] | 3000
10 | CCc1ccccc1C(=O)Nc1cccc(C(=O)Nc2ccc3ccccc3n2)c1 [Compound 52, 3-(2-Ethyl-benzoylamino)-N-quinolin-2-yl-benzamide] | 6900
11 | O=C(Nc1cccc(C(=O)NC2CCCCCC2)c1)c1cc(C(F)(F)F)cc(C(F)(F)F)c1 [Compound 54, N-(3-Cycloheptylcarbamoyl-phenyl)-3,5-bis-trifluoromethyl-benzamide] | 1200
12 | COc1cccc(OC)c1C(=O)Nc1cccc(C(=O)NC2CCCCCC2)c1 [Compound 65, N-(3-Cycloheptylcarbamoyl-phenyl)-2,6-dimethoxy-benzamide] | 6900
13 | CC(=O)Oc1ccccc1C(=O)Nc1cccc(C(=O)NC2CCCCCC2)c1 [Compound 66, Acetic acid 2-(3-cycloheptylcarbamoyl-phenylcarbamoyl)-phenyl ester] | 9900
14 | C[C@H](NC(=O)c1cccc(NC(=O)c2ccccc2F)c1)c1cccc2ccccc12 [Compound 73, 2-Fluoro-N-[3-((S)-1-naphthalen-1-yl-ethylcarbamoyl)-phenyl]-benzamide] | 1800
15 | COc1cccc(OC)c1C(=O)Nc1cccc(C(=O)N[C@@H](C)c2cccc3ccccc23)c1 [Compound 76, 2,6-Dimethoxy-N-[3-((S)-1-naphthalen-1-yl-ethylcarbamoyl)-phenyl]-benzamide] | 4100
16 | C[C@@H](NC(=O)c1cccc(NC(=O)c2ccccc2F)c1)c1cccc2ccccc12 [Compound 88, 2-Fluoro-N-[3-((R)-1-naphthalen-1-yl-ethylcarbamoyl)-phenyl]-benzamide] | 2300
17 | COc1cccc(OC)c1C(=O)Nc1cccc(C(=O)N[C@H](C)c2cccc3ccccc23)c1 [Compound 92, 2,6-Dimethoxy-N-[3-((R)-1-naphthalen-1-yl-ethylcarbamoyl)-phenyl]-benzamide] | 1300

Continued, values first:

Row | IC50 [nM] | SMILES
18 | 1100 | Cc1cc(NC(=O)c2cccc(NC(=O)c3ccccc3Cl)c2)c2ccccc2n1 [Compound 3, 3-(2-Chloro-benzoylamino)-N-(2-methyl-quinolin-4-yl)-benzamide]
19 | 300 | O=C(NC(c1ccccc1)c1ccccc1)c1cccc(NC(=O)c2ccccc2Cl)c1 [Compound 6, 3-(2-Chloro-benzoylamino)-N-(diphenylyl-methyl)-benzamide]
20 | 600 | O=C(Nc1ccc2ccccc2n1)c1cccc(NC(=O)c2ccccc2Cl)c1 [Compound 9, 3-(2-Chloro-benzoylamino)-N-(quinolin-2-yl-)-benzamide]
21 | 900 | O=C(Nc1ccc2ncsc2c1)c1cccc(NC(=O)c2ccccc2Cl)c1 [Compound 14, 3-(2-Chloro-benzoylamino)-N-(benzothiazol-6-yl)-benzamide]
22 | 860 | O=C(NC1CCCc2ccccc21)c1cccc(NC(=O)c2ccccc2Cl)c1 (stereo not drawn) [Compound 35, 3-(2-Chloro-benzoylamino)-N-(1,2,3,4-tetrahydro-naphthalen-1-yl)-benzamide]
23 | 330 | O=C(NC1CCCCCC1)c1cccc(NC(=O)c2ccccc2Cl)c1 [Compound 36, 3-(2-Chloro-benzoylamino)-N-cycloheptyl-benzamide]
24 | 140 | O=C(Nc1ccc2ccccc2n1)c1cccc(NC(=O)c2ccccc2Br)c1 [Compound 38, 3-(2-Bromo-benzoylamino)-N-quinolin-2-yl-benzamide]
25 | 800 | O=C(Nc1ccc2ccccc2n1)c1cccc(NC(=O)c2c(Cl)cccc2Cl)c1 [Compound 40, 3-(2,6-Chloro-benzoylamino)-N-quinolin-2-yl-benzamide]
26 | 190 | O=C(Nc1ccc2ccccc2n1)c1cccc(NC(=O)c2ccccc2C(F)(F)F)c1 [Compound 43, 3-(2-Trifluoromethyl-benzoylamino)-N-quinolin-2-yl-benzamide]
27 | 650 | Cc1ccccc1C(=O)Nc1cccc(C(=O)Nc2ccc3ccccc3n2)c1 [Compound 44, 3-(2-Methyl-benzoylamino)-N-quinolin-2-yl-benzamide]
28 | 290 | O=C(Nc1ccc2ccccc2n1)c1cccc(NC(=O)c2ccccc2I)c1 [Compound 46, 3-(2-Iodo-benzoylamino)-N-quinolin-2-yl-benzamide]
29 | 1200 | O=C(Nc1ccc2ccccc2n1)c1cccc(NC(=O)c2ccccc2-c2cccs2)c1 [Compound 49, 3-(2-Thiophene-2-yl-benzoylamino)-N-quinolin-2-yl-benzamide]
30 | 500 | O=C(Nc1ccc2ccccc2n1)c1cccc(NC(=O)c2ccccc2[N+](=O)[O-])c1 [Compound 53, 3-(2-Nitro-benzoylamino)-N-quinolin-2-yl-benzamide]
31 | 630 | O=C(NC1CCCCCC1)c1cccc(NC(=O)c2c(Cl)cccc2Cl)c1 [Compound 55, 2,6-Dichloro-N-(3-cycloheptylcarbamoyl-phenyl)-benzamide]
32 | 660 | O=C(NC1CCCCCC1)c1cccc(NC(=O)c2ccccc2C(F)(F)F)c1 [Compound 56, N-(3-Cycloheptylcarbamoyl-phenyl)-2-trifluoromethylbenzamide]
33 | 390 | Cc1ccccc1C(=O)Nc1cccc(C(=O)NC2CCCCCC2)c1 [Compound 57, N-(3-Cycloheptylcarbamoyl-phenyl)-2-methylbenzamide]
34 | 460 | O=C(NC1CCCCCC1)c1cccc(NC(=O)c2ccccc2F)c1 [Compound 63, N-(3-Cycloheptylcarbamoyl-phenyl)-2-fluorobenzamide]
35 | 180 | O=C(NC1CCCCCC1)c1cccc(NC(=O)c2ccccc2Br)c1 [Compound 68, 2-Bromo-N-(3-cycloheptylcarbamoyl-phenyl)-benzamide]
36 | 260 | O=C(NC1CCCCCC1)c1cccc(NC(=O)c2ccccc2I)c1 [Compound 69, N-(3-Cycloheptylcarbamoyl-phenyl)-2-iodo-benzamide]
37 | 230 | C[C@H](NC(=O)c1cccc(NC(=O)c2ccccc2Br)c1)c1cccc2ccccc12 [Compound 72, 2-Bromo-N-[3-((S)-1-naphthalen-1-yl-ethylcarbamoyl)-phenyl]-benzamide]
38 | 470 | C[C@H](NC(=O)c1cccc(NC(=O)c2c(Cl)cccc2Cl)c1)c1cccc2ccccc12 [Compound 74, 2,6-Dichloro-N-[3-((S)-1-naphthalen-1-yl-ethylcarbamoyl)-phenyl]-benzamide]
39 | 690 | Cc1ccccc1C(=O)Nc1cccc(C(=O)N[C@@H](C)c2cccc3ccccc23)c1 [Compound 78, 2-Methyl-N-[3-((S)-1-naphthalen-1-yl-ethylcarbamoyl)-phenyl]-benzamide]
40 | 370 | C[C@H](NC(=O)c1cccc(NC(=O)c2ccccc2Cl)c1)c1cccc2ccccc12 [Compound 85, 2-Chloro-N-[3-((S)-1-naphthalen-1-yl-ethylcarbamoyl)-phenyl]-benzamide]
41 | 380 | C[C@@H](NC(=O)c1cccc(NC(=O)c2ccccc2Br)c1)c1cccc2ccccc12 [Compound 87, 2-Bromo-N-[3-((R)-1-naphthalen-1-yl-ethylcarbamoyl)-phenyl]-benzamide]
42 | 600 | C[C@@H](NC(=O)c1cccc(NC(=O)c2c(Cl)cccc2Cl)c1)c1cccc2ccccc12 [Compound 89, 2,6-Dichloro-N-[3-((R)-1-naphthalen-1-yl-ethylcarbamoyl)-phenyl]-benzamide]
